Results from ChEMBL document CHEMBL1132653, “Substitution at the F-ring N-imide of the indolocarbazole antitumor drug NB-506 increases the cytotoxicity, DNA binding, and topoisomerase I inhibition activities” (J Med Chem, 1999).

Legend:
HCT-116 = experiment: Cytotoxicity against human colon cancer cells (HCT116); format: functional, cell-based
[1] = The compound was tested for free energy change at binding to DNA; format: ADME
[2] = The compound was tested for Binding constant against DNA; format: ADME
DLD-1 = experiment: Cytotoxicity against human colon cancer cells (DLD-1); format: functional, cell-based
MKN-45 = experiment: Cytotoxicity against human gastric cancer cells (MKN-45); format: functional, cell-based; conditions: MKN-45, Stomach
P388 = experiment: Cytotoxicity against murine leukemia cell line (P388); format: functional, cell-based; conditions: Mus musculus

## O=C1c2c(c3c4cccc(O)c4n(C4OC(CO)C(O)C(O)C4O)c3c3[nH]c4c(O)cccc4c23)C(=O)N1NC(CO)CO (centres undefined)
HCT-116
  IC50: 32 nM
[1]
  -Delta G obs: 6.56 kcal/mol
[2]
  K/10e4: 8.19 M⁻¹

## O=CNN1C(=O)c2c(c3c4cccc(O)c4n(C4OC(CO)C(O)C(O)C4O)c3c3[nH]c4c(O)cccc4c23)C1=O (centres undefined)
DLD-1
  IC50: 2100 nM
HCT-116
  IC50: 120 nM
MKN-45
  IC50: 390 nM
P388
  IC50: 62 nM
[1]
  -Delta G obs: 5.91 kcal/mol
[2]
  K/10e4: 2.64 M⁻¹
